Assay results reported in EP4778920A1, “INDAZOLONE COMPOUND, PREPARATION METHOD THEREFOR, PHARMACEUTICAL COMPOSITION, AND USE” (Shanghai Institute of Materia Medica, Chinese Academy of …, priority 2023, dated 2025).

Assays:
[1] = system: MM.1S cells; assay: MM.1S cell proliferation inhibition (MTS assay); assay type: cell-based; conditions: Homo sapiens, MM1.S, 168 h, 7 days incubation, read-out: MM1.S (IC50, Inhibitory Activity of Compounds on MM.1S Cell Proliferation)
Description: The cell concentration was diluted according to a 7-day incubation period, and 180 µL of cell suspension was added to each well of a 96-well plate, with 20,000 cells per well. […] The test compounds were prepared from a 10 mM stock solution and serially diluted in a 5-fold gradient, and 20 µL of the diluted solution was added to each compound-treated well (final DMSO concentration also 0.2%). The cells were incubated in a 37 °C, 5% CO2 incubator for 7 days. After incubation, the reaction solution was prepared according to the MTS assay kit instructions (Promega, G5430), and 20 µL was added to each well. The plate was incubated at 37 °C with 5% CO2 for 3-4 hours. The absorbance at 490 nm was measured using a microplate reader, and the absorbance at 690 nm was used as the background value. […] The IC50 values for cell proliferation inhibition were determined using GraphPad Prism 5.0. Each experiment was repeated three times, and three parallel replicates were performed in each experiment to calculate the mean value and standard deviation.
Inhibitory Activity of Compounds on MM.1S Cell Proliferation

[2] = system: Mino cells; assay: Mino cell proliferation inhibition (MTS assay); assay type: cell-based; conditions: Homo sapiens, 72 h, 3 days incubation, read-out: Mino (IC50, Inhibitory Activity of Compounds on Mino Cell Proliferation)
Description: The cell concentration was diluted according to a 3-day incubation period, and 90 µL of cell suspension was added to each well of a 96-well plate, resulting in 8,000 cells per well. […] The test compounds were prepared from a 10 mM stock solution and serially diluted in a five-fold gradient. Similarly, 10 µL of the diluted compound solution was added to each compound-treated well (final DMSO concentration 0.2%).
The cells were incubated in a 37 °C, 5% CO2 incubator for 3 days. After incubation, the reaction solution was prepared according to the MTS assay kit instructions (Promega, G5430), and 20 µL was added to each well. The plate was further incubated at 37 °C with 5% CO2 for 3-4 hours. The absorbance at 490 nm was measured using a microplate reader, and the absorbance at 690 nm was used as the background value. The final raw data were calculated as OD490 - OD690. […] The IC50 values for cell proliferation inhibition were determined using GraphPad Prism 5.0. Each experiment was repeated three times, and three parallel replicates were performed in each experiment to calculate the mean value and standard deviation.
Table 2. Inhibitory Activity of Compounds on Mino Cell Proliferation

[3] = system: MV-4-11 cells; assay: MV-4-11 cell proliferation inhibition (MTS assay); assay type: cell-based; conditions: Homo sapiens, MV4-11, 168 h, 7 days incubation, MTS, read-out: MV-411 (IC50, Inhibitory Activity of Compounds on MV-4-11 Cell Proliferation)
Description: MV-4-11 cells were cultured in IMDM medium supplemented with 10% fetal bovine serum and collected. The cell concentration was diluted according to a 7-day incubation period, and 180 µL of cell suspension was added to each well of a 96-well plate, resulting in 2,000 cells per well. […] The test compounds were prepared from a 10 mM stock solution and serially diluted in a five-fold gradient, and 20 µL of the diluted compound solution was added to each compound-treated well (final DMSO concentration 0.2%). The cells were incubated in a 37 °C, 5% CO2 incubator for 7 days. After incubation, the reaction solution was prepared according to the MTS assay kit instructions (Promega, G5430), and 20 µL was added to each well. The plate was further incubated at 37 °C with 5% CO2 for 3-4 hours. The absorbance at 490 nm was measured using a microplate reader, and the absorbance at 690 nm was used as the background value. The final raw data were calculated as OD490 - OD690. […] The IC50 values for cell proliferation inhibition were determined using GraphPad Prism 5.0. Each experiment was repeated three times, and three parallel replicates were performed in each experiment to calculate the mean value and standard deviation.
Table 3. Inhibitory Activity of Compounds on MV-4-11 Cell Proliferation

[4] = target: CRBN/DDB1 (Homo sapiens, UniProt Q96SW2); assay: CRBN/DDB1 binding TR-FRET assay; conditions: read-out: AVE_Inhibition% (1 µM)
Description: • 1. 0.1 µL of the reference solution was added to a 384-well assay plate. The final detection concentration was 100 µM, followed by 3-fold serial dilution for 10 points. • 2. 2.5 µL of CRBN/DDB1 was added to the 384-well plate and centrifuged at 1000 rpm for 1 minute. • 3. 2.5 µL of Thalidomide-BODIPY was added to the plate, centrifuged at 1000 rpm for 1 minute, and incubated at 25 °C for 15 minutes. • 4. 5 µL of His-Tb was added to the plate, centrifuged at 1000 rpm for 1 minute, and incubated at 25 °C for 60 minutes. • 5. The TR-FRET signal was measured using a BMG plate reader with a fluorescence ratio of 520/490 nm.
Table 4. Inhibition Rate of Compounds on CRBN/DDB1 Binding

Chain of CRBN/DDB1 (Q96SW2 whole entry, species assumed): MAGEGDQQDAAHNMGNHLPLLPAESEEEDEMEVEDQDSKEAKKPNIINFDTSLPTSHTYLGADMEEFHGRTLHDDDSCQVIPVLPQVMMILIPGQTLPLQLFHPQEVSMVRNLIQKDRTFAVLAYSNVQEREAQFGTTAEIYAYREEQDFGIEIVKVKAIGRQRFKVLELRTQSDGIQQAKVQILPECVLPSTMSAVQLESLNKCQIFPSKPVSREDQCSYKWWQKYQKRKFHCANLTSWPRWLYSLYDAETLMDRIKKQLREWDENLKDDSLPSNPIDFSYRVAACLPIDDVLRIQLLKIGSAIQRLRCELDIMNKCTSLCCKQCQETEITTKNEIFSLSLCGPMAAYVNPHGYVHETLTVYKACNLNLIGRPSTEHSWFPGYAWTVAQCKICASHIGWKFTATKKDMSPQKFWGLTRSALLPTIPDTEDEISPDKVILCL
Chain of CRBN/DDB1 (Q16531 whole entry partner, species assumed): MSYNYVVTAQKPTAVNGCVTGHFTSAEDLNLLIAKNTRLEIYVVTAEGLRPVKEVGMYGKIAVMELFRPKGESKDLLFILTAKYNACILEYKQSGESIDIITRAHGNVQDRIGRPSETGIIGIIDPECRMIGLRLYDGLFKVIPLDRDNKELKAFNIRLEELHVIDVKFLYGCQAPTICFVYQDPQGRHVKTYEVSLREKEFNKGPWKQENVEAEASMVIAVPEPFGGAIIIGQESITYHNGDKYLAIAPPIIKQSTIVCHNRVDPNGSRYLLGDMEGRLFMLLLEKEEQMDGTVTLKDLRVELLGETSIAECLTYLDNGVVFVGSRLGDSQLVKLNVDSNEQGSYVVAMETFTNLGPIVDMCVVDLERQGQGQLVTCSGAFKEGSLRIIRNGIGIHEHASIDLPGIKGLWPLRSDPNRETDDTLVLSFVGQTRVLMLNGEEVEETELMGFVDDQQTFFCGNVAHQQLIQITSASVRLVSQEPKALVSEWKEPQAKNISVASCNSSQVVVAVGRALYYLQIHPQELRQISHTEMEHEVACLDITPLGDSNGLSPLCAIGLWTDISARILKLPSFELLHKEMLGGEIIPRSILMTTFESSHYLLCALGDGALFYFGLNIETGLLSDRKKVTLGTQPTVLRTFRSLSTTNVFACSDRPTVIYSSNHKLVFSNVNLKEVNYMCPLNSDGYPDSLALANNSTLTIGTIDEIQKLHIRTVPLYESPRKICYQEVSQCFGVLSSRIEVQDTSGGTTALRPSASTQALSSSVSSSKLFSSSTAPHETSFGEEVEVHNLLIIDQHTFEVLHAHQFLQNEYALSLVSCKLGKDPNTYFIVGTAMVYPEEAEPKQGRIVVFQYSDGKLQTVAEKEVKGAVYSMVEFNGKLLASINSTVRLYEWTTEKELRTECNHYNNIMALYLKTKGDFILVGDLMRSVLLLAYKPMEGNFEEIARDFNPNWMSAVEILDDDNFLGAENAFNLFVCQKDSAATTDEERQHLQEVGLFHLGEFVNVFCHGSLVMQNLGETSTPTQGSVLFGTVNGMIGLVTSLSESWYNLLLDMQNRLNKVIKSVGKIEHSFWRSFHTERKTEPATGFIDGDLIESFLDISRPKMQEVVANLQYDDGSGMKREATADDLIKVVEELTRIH

O=C1CC[C@H](n2[nH]c3c(OCc4ccc(CN5CCOCC5)cc4)cccc3c2=O)C(=O)N1 [Compound D1, (S)-3-(7-((4-(Morpholinomethyl)benzyl)oxy)-3-oxo-1,3-dihydro-2H-indazol-2-yl)piperidine-2,6-dione]
IC50 [1]: < 200 nM | IC50 [2]: 1000 to 10000 nM | IC50 [3]: > 20000 nM | inhibition at 1 µM [4]: 50 to 90%

N#Cc1ccc(N2CCN(Cc3ccc(COc4cccc5c(=O)n([C@H]6CCC(=O)NC6=O)[nH]c45)cc3)CC2)c(F)c1 [Compound D2, (S)-4-(4-(4-(((2-(2,6-dioxopiperidin-3-yl)-3-oxo-2,3-dihydro-1H-indazol-7-yl)oxy)methyl)benzyl)piperazin-1-yl)-3-fluorobenzonitrile]
IC50 [1]: < 200 nM | IC50 [2]: < 200 nM | IC50 [3]: < 200 nM | inhibition at 1 µM [4]: > 90%

N#Cc1ccc(N2CCN(C(=O)c3ccc(COc4cccc5c(=O)n(C6CCC(=O)NC6=O)[nH]c45)cc3)CC2)c(F)c1 (stereo not drawn) [Compound D4]
IC50 [1]: < 200 nM | IC50 [2]: < 200 nM | IC50 [3]: 1000 to 20000 nM | inhibition at 1 µM [4]: > 90%

Cc1ccc(N2CCN(C(=O)c3ccc(COc4cccc5c(=O)n(C6CCC(=O)NC6=O)[nH]c45)cc3)CC2)c(F)c1 (stereo not drawn) [Compound D5, 3-(7-((4-(4-(2-Fluoro-4-methylphenyl)piperazine-1-carbonyl)benzyl)oxy)-3-oxo-1,3-dihydro-2H-indazol-2-yl)piperidine-2,6-dione]
IC50 [1]: < 200 nM | IC50 [2]: < 200 nM | IC50 [3]: 1000 to 20000 nM | inhibition at 1 µM [4]: 50 to 90%

O=C1CCC(n2[nH]c3c(OCc4ccc(CN5CCN(c6ccc(F)cc6F)CC5)cc4)cccc3c2=O)C(=O)N1 (stereo not drawn) [Compound D7, 3-(7-((4-((4-(2,4-difluorophenyl)piperazin-1-yl)methyl)benzyl)oxy)-3-oxo-1,3-dihydro-2H-indazol-2-yl)piperidine-2,6-dione]
IC50 [1]: < 200 nM | IC50 [2]: < 200 nM | IC50 [3]: < 200 nM | inhibition at 1 µM [4]: > 90%

O=C1CCC(n2[nH]c3c(OCc4ccc(CN5CCN(c6cccc(Cl)c6)CC5)cc4)cccc3c2=O)C(=O)N1 (stereo not drawn) [Compound D8, 3-(7-((4-((4-(3-chlorophenyl)piperazin-1-yl)methyl)benzyl)oxy)-3-oxo-1,3-dihydro-2H-indazol-2-yl)piperidine-2,6-dione]
IC50 [1]: < 200 nM | IC50 [2]: < 200 nM | IC50 [3]: < 200 nM | inhibition at 1 µM [4]: > 90%

O=C1CCC(n2[nH]c3c(OCc4ccc(CN5CCN(c6ccc(Cl)cc6)CC5)cc4)cccc3c2=O)C(=O)N1 (stereo not drawn) [Compound D9, 3-(7-((4-((4-(4-chlorophenyl)piperazin-1-yl)methyl)benzyl)oxy)-3-oxo-1,3-dihydro-2H-indazol-2-yl)piperidine-2,6-dione]
IC50 [1]: < 200 nM | IC50 [2]: < 200 nM | IC50 [3]: < 200 nM | inhibition at 1 µM [4]: > 90%

O=C1CCC(n2[nH]c3c(OCc4ccc(CN5CCN(c6ccc(F)cc6)CC5)cc4)cccc3c2=O)C(=O)N1 (stereo not drawn) [Compound D10, 3-(7-((4-((4-(4-fluorophenyl)piperazin-1-yl)methyl)benzyl)oxy)-3-oxo-1,3-dihydro-2H-indazol-2-yl)piperidine-2,6-dione]
IC50 [1]: < 200 nM | IC50 [2]: < 200 nM | IC50 [3]: < 200 nM | inhibition at 1 µM [4]: > 90%

N#Cc1ccc(N2CCN(Cc3ccc(COc4cc(F)cc5c(=O)n(C6CCC(=O)NC6=O)[nH]c45)cc3)CC2)c(F)c1 (stereo not drawn) [Compound D14, 4-(4-(4-(((2-(2,6-dioxopiperidin-3-yl)-5-fluoro-3-oxo-2,3-dihydro-1H-indazol-7-yl)oxy)methyl)benzyl)piperazin-1-yl)-3-fluorobenzonitrile]
IC50 [1]: < 200 nM | IC50 [2]: < 200 nM | IC50 [3]: < 200 nM | inhibition at 1 µM [4]: > 90%

O=C1CCC(n2[nH]c3c(OCc4ccc(CN5CCN(c6ccc(F)cc6F)CC5)cc4)cc(F)cc3c2=O)C(=O)N1 (stereo not drawn) [Compound D15, 3-(7-((4-((4-(2,4-difluorophenyl)piperazin-1-yl)methyl)benzyl)oxy)-5-fluoro-3-oxo-1,3-dihydro-2H-indazol-2-yl)piperidine-2,6-dione]
IC50 [1]: < 200 nM | IC50 [2]: < 200 nM | IC50 [3]: < 200 nM | inhibition at 1 µM [4]: 50 to 90%

O=C1CCC(n2[nH]c3c(OCc4ccc(CN5CCN(c6ccc(Cl)cc6)CC5)cc4)cc(F)cc3c2=O)C(=O)N1 (stereo not drawn) [Compound D18, 3-(7-((4-((4-(4-chlorophenyl)piperazin-1-yl)methyl)benzyl)oxy)-5-fluoro-3-oxo-1,3-dihydro-2H-indazol-2-yl)piperidine-2,6-dione]
IC50 [1]: < 200 nM | IC50 [2]: < 200 nM | IC50 [3]: < 200 nM | inhibition at 1 µM [4]: > 90%

O=C1CCC(n2[nH]c3c(OCc4ccc(CN5CCN(c6ccc(F)cc6)CC5)cc4)cc(F)cc3c2=O)C(=O)N1 (stereo not drawn) [Compound D19, 3-(5-Fluoro-7-((4-((4-(4-fluorophenyl)piperazin-1-yl)methyl)benzyl)oxy)-3-oxo-1,3-dihydro-2H-indazol-2-yl)piperidine-2,6-dione]
IC50 [1]: < 200 nM | IC50 [2]: < 200 nM | IC50 [3]: < 200 nM | inhibition at 1 µM [4]: > 90%

Cc1ccc(CNC(=O)c2ccc3c(=O)n(C4CCC(=O)NC4=O)[nH]c3c2)cc1 (stereo not drawn) [Compound D36, 2-(2,6-dioxopiperidin-3-yl)-N-(4-methylbenzyl)-3-oxo-2,3-dihydro-1H-indazole-6-carboxamide]
IC50 [1]: > 10000 nM | IC50 [2]: > 10000 nM | IC50 [3]: > 20000 nM

O=C1CCC(n2[nH]c3cc(C(=O)N[C@H](c4ccccc4)C(F)(F)F)ccc3c2=O)C(=O)N1 (stereo partly drawn) [Compound D37, 2-(2,6-dioxopiperidin-3-yl)-3-oxo-N-((R)-2,2,2-trifluoro-1-phenylethyl)-2,3-dihydro-1H-indazole-6-carboxamide]
IC50 [1]: > 10000 nM | IC50 [2]: > 10000 nM | IC50 [3]: > 20000 nM

C[C@H](NC(=O)c1ccc2c(=O)n(C3CCC(=O)NC3=O)[nH]c2c1)c1ccc(F)cc1F (stereo partly drawn) [Compound D38, N-((S)-1-(2,4-difluorophenyl)ethyl)-2-(2,6-dioxopiperidin-3-yl)-3-oxo-2,3-dihydro-1H-indazole-6-carboxamide]
IC50 [1]: > 10000 nM | IC50 [2]: > 10000 nM | IC50 [3]: > 20000 nM

C[C@H](NC(=O)c1ccc2c(=O)n(C3CCC(=O)NC3=O)[nH]c2c1)c1cccc(Cl)c1 (stereo partly drawn) [Compound D39, N-((S)-1-(3-chlorophenyl)ethyl)-2-(2,6-dioxopiperidin-3-yl)-3-oxo-2,3-dihydro-1H-indazole-6-carboxamide]
IC50 [1]: > 10000 nM | IC50 [2]: > 10000 nM | IC50 [3]: > 20000 nM

O=C1CCC(n2[nH]c3cc(C(=O)N[C@@H]4CCOc5ccc(Cl)cc54)ccc3c2=O)C(=O)N1 (stereo partly drawn) [Compound D41, N-((R)-6-chlorochroman-4-yl)-2-(2,6-dioxopiperidin-3-yl)-3-oxo-2,3-dihydro-1H-indazole-6-carboxamide]
IC50 [1]: > 10000 nM | IC50 [2]: > 10000 nM | IC50 [3]: > 20000 nM

Cc1cccc2c1OCC[C@H]2NC(=O)c1ccc2c(=O)n(C3CCC(=O)NC3=O)[nH]c2c1 (stereo partly drawn) [Compound D42, 2-(2,6-dioxopiperidin-3-yl)-N-((R)-8-methylchroman-4-yl)-3-oxo-2,3-dihydro-1H-indazole-6-carboxamide]
IC50 [1]: > 10000 nM | IC50 [2]: > 10000 nM | IC50 [3]: > 20000 nM
